These results are taken from paper PMC5689723, “Targeting aggressive prostate cancer-associated CD44v6 using phage display selected peptides” (Oncotarget, 2017).

Where two headings read alike, the source gives them in different places. Ends that are not written are not given here. Peptide text beside a SMILES is read from it. * marks the point of attachment. Biotin = O=C1N[C@H]2[C@H](CS[C@H]2CCCCC(=O)*)N1

Experiment [1] relates to v6 region peptide (KEQWFGNRWHEGYR) of CD44v6. The experiment is described as follows: Peptide-Peptide ELISA, v6 region peptide. The conditions noted are these: biotinylated peptides 10 μM, v6 and control peptides 2 μM on streptavidin plate; 25 mM Tris pH 7.2, 150 mM NaCl, 0.1% BSA, 0.05% Tween-20; 2 h at RT; 490 nm; Figure 1D. It counts as binding, human. (In an ELISA, binding on a coated surface is turned into a signal by an enzyme label.)

For another experiment, the target named is T1, recombinant CD44v6-Fc (Homo sapiens, UniProt P16070, DEL223-384/DEL429-575).
T1 construct: the ECD of CD44 and CD44v6 protein were expressed as Fc-tagged proteins; made in house; host or cells: CHO-K1 cells, purified by protein A chromatography
Kind of experiment: Peptide-Protein ELISA, recombinant CD44v6-Fc. As to conditions: 2 h at RT, 490 nm; for binding to recombinant CD44v6-Fc (in words): biotinylated synthetic peptides, various concentrations, Figure 2C, 2D; for Kd: biotinylated peptide, CD44v6-Fc coated at 1 μg/ml, pH 9.6, 0.5% BSA in PBST, HRP-streptavidin, nonlinear regression, GraphPad Prism 6.0. The class given is binding. The source says:
Figure 2 Characterization of peptide binding to recombinant CD44v6 (A) Schematic of recombinant CD44v6-Fc and CD44-Fc expression construct. The number of constant exons (1-5 and 15-17) are marked. (B) SDS-PAGE analysis and immunoblotting of purified CD44v6-Fc and CD44-Fc (M, BioRad precision plus all blue prestained protein standard; lane 1, CD44v6-Fc; lane 2, CD44-Fc). For SDS-PAGE analysis, the purified proteins were detected by coomassie blue staining. For immunoblotting, the mouse anti-human Fc Ab or mouse anti-human v6 region specific mAb VFF18 was used as the primary Ab and HRP conjugated goat anti-mouse Ab was used as the secondary Ab. (C) ELISA analysis of the dose dependent recombinant CD44v6-Fc binding ability of four biotinylated peptides. […] The maximal ELISA absorbance value of PFT binding to CD44v6-Fc was used to normalize the binding signal of individual peptides. The specific binding curve was generated using GraphPad Prism 6.0 software and absolute Kd values were calculated using nonlinear regression. (D) The specificity of PFT binding to recombinant CD44v6-Fc. Different concentrations of PFT and its two scrambled peptide versions were incubated with immobilized CD44v6-Fc or CD44-Fc, respectively for ELISA analyses. The maximal ELISA absorbance value of PFT binding to CD44v6-Fc was used to normalize the binding signal of individual peptides. The specific binding curve was generated using GraphPad Prism 6.0 software.
An ELISA was performed to analyze the binding of synthesized biotinylated peptides to recombinant CD44-Fc or CD44v6-Fc. Briefly, 100 μl of recombinant protein at 1 μg/ml in 0.05 M carbonate/bicarbonate coating buffer (pH 9.6) was added to each well of a 96-well microtiter plate and coated for 24 h at 4°C. The plates were blocked with 1% BSA in PBST buffer (0.05% Tween 20 in PBS) and then incubated with 100 μl of peptides or antibodies at various concentrations in 0.5% BSA in PBST for 2 h at RT. After washing extensively for five times with PBST buffer, the plates were incubated with 100 μl of HRP-conjugated streptavidin (1:2000 diluted with 0.5% BSA in PBST buffer) for 1 h at RT. After washing five times with PBST buffer, the Sigma fast O-phenylenediamine dihydrochloride tablets (Sigma-Aldrich, St. Louis, MO) were used as substrates and the absorbance was measured at 490 nm using an endpoint assay on a μQuant Universal Microplate Spectrophotometer (Bio-Tek Instruments, Winooski, VT).
For binding analysis, the ECD of CD44 and CD44v6 protein were expressed as Fc-tagged proteins (Figure 2A). Exon numbering was performed according to the study of Screaton et al. The ECD of CD44 was engineered as an N-terminal constant sequence (exons 1–5) followed by a nonvariable stretch at the C-terminus (exons 15–17) (Figure 2A). […]

For a further experiment, the system named is SORE6-GFP^- cells. More on the design: method as in PMID 22439924. The conditions noted are these: treatment with doxorubicin; proportion of SORE6-GFP^+ cells increased dramatically; ref [41]; cited from earlier work.
Another experiment concerns PC3M cells. The experiment is described as follows: MTT assay, PC3M cells. The class given is cell-based. The conditions noted are these: Homo sapiens, PC-3M, 48 h, 5000 cells per well, triplicate, 562 nm, P< 0.05 vs v6A3, read-out: DOX IC50 of PC3M. On the procedure:
To determine the dose response of drug-resistant PC3M1G4 cell lines, PC3M and v6A3 cells were seeded in triplicate in 96-well plates at 5000 cells per well and incubated for 24 h. A range of concentrations (1000, 100, 10, 1, 0.1, 0.01, 0.001, 0.0001 nM) of DOX in fresh medium were added to the cells. Control cells were treated with appropriate volumes of fresh medium. After 48 h, 20 μl of MTT (3-(4,5-dimethylthiazol-2-yl)-2,5-diphenyltetrazolium bromide) (5 mg/ ml) (Sigma-Aldrich, St. Louis, MO) was added to each well, followed by incubation at 37°C in 5% CO2 for 4 h. Subsequently, 100 μl of DMSO (Sigma-Aldrich, St. Louis, MO) was added and the plate was shaken for 20 min at RT to dissolve the formazan crystals. The optical density (absorbance units) was read at a wavelength of 562 nm on a μQuant Universal Microplate Spectrophotometer (Bio-Tek Instruments, Winooski, VT). The growth inhibition curve was generated using GraphPad Prism 6.0 software (GraphPad Software Inc., San Diego, CA). Absolute IC50 values were calculated using the log inhibitor vs. response curves for nonlinear regression.
Background: Tetrazolium assays rely on reduction of a dye to a coloured formazan, in cell work by metabolically active cells.

For the next experiment, the system named is CD44v6. Kind of experiment: Immunohistofluorescence, human PCa tissue microarrays. The conditions noted are these: T3N2M1 (grade III) TMA sample; 50 μM peptide; Figure 10C.
The subject of a further experiment is Met signaling. As to conditions: v6 peptide derivative; ref [36]; cited from earlier work.
For the next experiment, the system named is VFF18. The conditions noted are these: amino acids 19-29 of the v6 domain; ref [55]; cited from earlier work. An excerpt:
Affinity selection of phage displaying peptides typically involves passing the phage library over desired target molecules, such as protein biomarkers of cancer. In this study, we aimed to obtain peptides specific to the v6 region of human CD44v6, a putative aggressive cancer and/or CSC biomarker. However, the v6 region contains only 45 amino acids while the CD44v6-ECD consists of 290 amino acids. […] VFF18 is a murine mAb gene ...

For experiment [2], the target named is CD44v6-Fc ECD (exons 1-5, v6 exon 10, exons 15-17) (Homo sapiens), P16070. Kind of experiment: ELISA. The conditions noted are these: N-terminal biotin on peptide, Fc fusion of CD44v6.
CD44v6-Fc ECD (exons 1-5, v6 exon 10, exons 15-17) (Homo sapiens), P16070, sequence (P16070 whole entry, looked up, change not shown, the tested form may be a part): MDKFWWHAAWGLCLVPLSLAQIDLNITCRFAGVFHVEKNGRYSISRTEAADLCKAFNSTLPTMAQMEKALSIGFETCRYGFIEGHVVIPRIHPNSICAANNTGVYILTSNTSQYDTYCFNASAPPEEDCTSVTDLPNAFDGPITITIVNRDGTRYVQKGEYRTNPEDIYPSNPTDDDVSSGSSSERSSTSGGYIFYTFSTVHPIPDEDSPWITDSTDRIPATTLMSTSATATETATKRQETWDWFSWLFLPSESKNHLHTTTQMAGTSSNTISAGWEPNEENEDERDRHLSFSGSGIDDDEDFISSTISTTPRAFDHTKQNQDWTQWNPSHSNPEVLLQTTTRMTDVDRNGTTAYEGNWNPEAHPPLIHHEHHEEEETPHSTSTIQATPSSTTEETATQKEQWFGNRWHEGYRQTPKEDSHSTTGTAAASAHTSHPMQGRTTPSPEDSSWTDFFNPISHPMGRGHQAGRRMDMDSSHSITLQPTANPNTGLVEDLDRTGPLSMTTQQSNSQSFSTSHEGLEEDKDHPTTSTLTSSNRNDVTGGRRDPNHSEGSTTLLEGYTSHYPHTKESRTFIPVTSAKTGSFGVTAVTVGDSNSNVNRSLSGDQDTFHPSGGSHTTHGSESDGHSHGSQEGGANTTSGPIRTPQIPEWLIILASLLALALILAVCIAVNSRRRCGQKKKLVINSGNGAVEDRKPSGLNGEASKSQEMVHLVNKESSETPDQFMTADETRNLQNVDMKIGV

T1 sequence (P16070 with tags, fused parts or gaps isoform P16070-7 DEL223-384/DEL429-575 limits assumed): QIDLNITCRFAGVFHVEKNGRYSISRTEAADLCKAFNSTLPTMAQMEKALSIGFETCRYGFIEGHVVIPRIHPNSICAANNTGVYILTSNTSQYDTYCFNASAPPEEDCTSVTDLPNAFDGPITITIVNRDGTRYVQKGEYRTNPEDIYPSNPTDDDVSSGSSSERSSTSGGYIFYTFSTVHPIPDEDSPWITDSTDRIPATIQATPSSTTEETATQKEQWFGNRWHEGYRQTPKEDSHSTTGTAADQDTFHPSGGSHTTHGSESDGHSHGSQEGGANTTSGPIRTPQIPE

On to Biotin-GSG-SAYDRPL (Biotin-GSGSAYDRPL), for which the “binding of synthetic peptides to v6 region peptide compared to control peptide (in words)” value in experiment [1] is “increased binding to v6 region peptide compared to control peptide”.
VSVWFVTANFPPFTD [scr2]: on recombinant CD44v6-Fc, the “binding to recombinant CD44v6-Fc (in words)” value is “negligible binding to CD44v6-Fc”.
For the molecule Biotin-GSG-WSNKGYD, the “binding of synthetic peptides to v6 region peptide compared to control peptide (in words)” value in experiment [1] is reported as “increased binding to v6 region peptide compared to control peptide”.
Consider `CC(C)[C@H](NC(=O)[C@H](CO)NC(=O)[C@H](CO)NC(=O)[C@@H](NC(=O)[C@H](CCCNC(=N)N)NC(=O)[C@@H]1CCCN1C(=O)CNC(=O)[C@H](C)NC(=O)[C@H](Cc1c[nH]c2ccccc12)NC(=O)CNC(=O)[C@H](CO)NC(=O)CNC(=O)CCCC[C@@H]1SC[C@@H]2NC(=O)N[C@@H]21)C(C)C)C(=O)N[C@@H](Cc1ccc(O)cc1)C(=O)N[C@@H](Cc1ccc(O)cc1)C(=O)N[C@@H](C)C(=O)NCC(=O)N[C@@H](C)C(=O)N[C@@H](CCCNC(=N)N)C(=O)O` [WAG] (Biotin-GSGWAGPRVSSVYYAGAR-OH), for which the Kd on recombinant CD44v6-Fc (read-out: apparent affinity (Kd) to recombinant CD44v6) turned out to be 8670 ± 1850 nM.
As to `COc1cccc2c1C(=O)c1c(O)c3c(c(O)c1C2=O)C[C@@](O)(C(=O)CO)C[C@@H]3O[C@H]1C[C@H](N)[C@H](O)[C@H](C)O1` [DOX, doxorubicin], the “cell death among SORE6-GFP^- cells on DOX treatment (in words)” value with SORE6-GFP^- cells is reported as “extensive cell death was observed among SORE6-GFP^- cells”. Moreover, the half-inhibitory concentration (IC50) in the experiment with PC3M cells is 51.6 nM.
As for VTPVFSFATPNFVDW [scr1], the “staining of PCa tissue by scrambled peptide (in words)” value in the experiment on CD44v6 is “no staining”. The “binding to recombinant CD44v6-Fc (in words)” value at recombinant CD44v6-Fc is listed as “negligible binding to CD44v6-Fc”.
As for KEQWFGNRWHEGYR [selection target], the “inhibition of Met signaling (in words)” value in the experiment with Met signaling was “inhibited Met signaling”.
For the molecule `CC(C)[C@H](NC(=O)[C@H](Cc1ccccc1)NC(=O)[C@@H]1CCCN1C(=O)[C@@H](NC(=O)[C@H](CO)NC(=O)[C@@H](NC(=O)[C@@H](NC(=O)[C@H](Cc1ccccc1)NC(=O)[C@@H]1CCCN1C(=O)CNC(=O)[C@H](CO)NC(=O)CNC(=O)CCCC[C@@H]1SC[C@@H]2NC(=O)N[C@@H]21)[C@@H](C)O)C(C)C)C(C)C)C(=O)N[C@@H](Cc1c[nH]c2ccccc12)C(=O)N[C@@H](CC(N)=O)C(=O)N[C@@H](Cc1ccccc1)C(=O)N[C@H](C(=O)N[C@@H](C)C(=O)N[C@@H](CC(=O)O)C(=O)O)[C@@H](C)O` [PFT] (Biotin-GSGPFTVSVPFVWNFTAD-OH), the Kd at recombinant CD44v6-Fc (read-out: apparent affinity (equilibrium dissociation constant, Kd) to recombinant CD44v6) was found to be 743 ± 153 nM.
For the molecule “WFGNRWHEGYR [peptide corresponding to amino acids 19-29 of the v6 domain]”, the “epitope for VFF18 binding (in words)” value in the experiment on VFF18 is “minimum sequence required for high-affinity binding of VFF18”.
Turning to Biotin-GSGWAGPRVSSVYYAGAR [WAG], the Kd in experiment [2] was 8670 nM.
The same measure, in the same setting: next, Biotin-GSGPFTVSVPFVWNFTAD [PFT]: 743 nM.

The IC50 is the concentration at which inhibition is half-maximal.
